For assay [1], the target named is Acetylcholinesterase (Electrophorus electricus) (UniProt O42275). Put plainly: Inhibition of electric eel AChE at 10 uM using acetylthiocholine as substrate preincubated for 5 mins followed by substrate addition and measured after 5 mins by Ellman's method relative to control. Conditions: time 10.0 min.
For assay [2], the target named is T1, Cholinesterase (Homo sapiens, UniProt P06276).
Description: Inhibition of human BuchE using butyrylthiocholine as substrate preincubated for 5 mins followed by substrate addition and measured after 5 mins by Ellman's method
Assay [3] concerns the target Cholinesterase (Equus caballus, UniProt P81908).
Description: Inhibition of equine serum BuChE using butyrylthiocholine as substrate preincubated for 5 mins followed by substrate addition and measured after 5 mins by Ellman's method
The target in assay [4] is T2, Beta-secretase 1 (Homo sapiens, UniProt P56817).
T2 sequence (P56817 whole entry): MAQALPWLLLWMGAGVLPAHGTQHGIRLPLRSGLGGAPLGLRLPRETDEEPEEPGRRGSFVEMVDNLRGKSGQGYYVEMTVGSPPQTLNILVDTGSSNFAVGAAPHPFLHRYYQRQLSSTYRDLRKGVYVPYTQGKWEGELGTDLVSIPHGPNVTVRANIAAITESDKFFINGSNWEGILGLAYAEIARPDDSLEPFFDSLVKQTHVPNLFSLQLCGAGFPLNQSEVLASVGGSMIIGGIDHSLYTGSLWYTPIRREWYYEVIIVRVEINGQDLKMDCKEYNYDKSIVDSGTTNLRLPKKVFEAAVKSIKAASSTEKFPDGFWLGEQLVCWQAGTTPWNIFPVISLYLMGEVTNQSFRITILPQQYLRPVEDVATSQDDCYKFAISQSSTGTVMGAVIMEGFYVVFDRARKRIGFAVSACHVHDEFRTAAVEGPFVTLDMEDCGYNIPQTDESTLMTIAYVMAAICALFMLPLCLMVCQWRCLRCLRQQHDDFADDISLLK
The target in assay [5] is T1, Cholinesterase. Description: Inhibition of human BuchE at 1 uM using butyrylthiocholine as substrate preincubated for 5 mins followed by substrate addition and measured after 5 mins by Ellman's method relative to control. Conditions: time 10.0 min. A general note: DTNB colorimetry detects thiols as they appear.
In assay [6] the target is Amyloid-beta precursor protein (Homo sapiens) (UniProt P05067). Description: Inhibition of HFIP-pretreated amyloid beta (1 to 42) (unknown origin) aggregation at 10 uM after 36 to 48 hrs by thioflavin-T fluorescence assay relative to control. To be noted: time 36-48 hrs.
Chain of Amyloid-beta precursor protein (Homo sapiens) (P05067 whole entry): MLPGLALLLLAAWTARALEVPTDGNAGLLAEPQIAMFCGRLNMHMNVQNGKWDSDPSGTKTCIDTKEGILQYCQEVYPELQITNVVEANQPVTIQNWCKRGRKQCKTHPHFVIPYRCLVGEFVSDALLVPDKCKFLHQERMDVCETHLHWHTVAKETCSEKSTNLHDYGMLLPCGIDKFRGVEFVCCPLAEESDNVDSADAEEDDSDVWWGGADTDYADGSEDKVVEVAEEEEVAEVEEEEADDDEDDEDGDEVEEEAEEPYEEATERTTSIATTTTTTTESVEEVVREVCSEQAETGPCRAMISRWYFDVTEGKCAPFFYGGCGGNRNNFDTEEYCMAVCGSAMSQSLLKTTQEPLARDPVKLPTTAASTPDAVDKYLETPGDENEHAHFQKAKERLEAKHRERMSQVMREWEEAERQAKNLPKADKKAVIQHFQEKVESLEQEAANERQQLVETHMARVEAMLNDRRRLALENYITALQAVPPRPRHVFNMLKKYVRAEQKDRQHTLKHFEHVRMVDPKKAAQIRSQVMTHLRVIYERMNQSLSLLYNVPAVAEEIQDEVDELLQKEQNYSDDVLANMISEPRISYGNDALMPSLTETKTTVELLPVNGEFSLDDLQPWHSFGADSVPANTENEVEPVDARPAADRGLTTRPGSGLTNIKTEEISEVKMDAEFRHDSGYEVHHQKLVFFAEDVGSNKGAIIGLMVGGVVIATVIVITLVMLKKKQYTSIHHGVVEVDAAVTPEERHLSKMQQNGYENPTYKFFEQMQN
The target in assay [7] is T2, Beta-secretase 1. Conditions: dose 50.0 µM, time 60.0 min.
Assay [8] deals with Sodium- and chloride-dependent GABA transporter 1 (Mus musculus) (UniProt P31648). Description: Inhibition of NO711 binding to mouse GAT1 expressed in HEK cell membranes at 100 uM incubated for 40 mins in presence of NO711 by LC-ESI-MS/MS analysis relative to control. Conditions: Membrane.
Assay [9] addresses Sodium- and chloride-dependent GABA transporter 1 (Mus musculus, UniProt P31648). Description: Inhibition of mouse GAT1 expressed in HEK293 cell line assessed as reduction in [3H]GABA uptake incubated for 10 mins. In kind it is cell-based.
A further assay concerns the target T3, GABA transporter 4 (Mus musculus, UniProt P31650).
T3 sequence (P31650 whole entry): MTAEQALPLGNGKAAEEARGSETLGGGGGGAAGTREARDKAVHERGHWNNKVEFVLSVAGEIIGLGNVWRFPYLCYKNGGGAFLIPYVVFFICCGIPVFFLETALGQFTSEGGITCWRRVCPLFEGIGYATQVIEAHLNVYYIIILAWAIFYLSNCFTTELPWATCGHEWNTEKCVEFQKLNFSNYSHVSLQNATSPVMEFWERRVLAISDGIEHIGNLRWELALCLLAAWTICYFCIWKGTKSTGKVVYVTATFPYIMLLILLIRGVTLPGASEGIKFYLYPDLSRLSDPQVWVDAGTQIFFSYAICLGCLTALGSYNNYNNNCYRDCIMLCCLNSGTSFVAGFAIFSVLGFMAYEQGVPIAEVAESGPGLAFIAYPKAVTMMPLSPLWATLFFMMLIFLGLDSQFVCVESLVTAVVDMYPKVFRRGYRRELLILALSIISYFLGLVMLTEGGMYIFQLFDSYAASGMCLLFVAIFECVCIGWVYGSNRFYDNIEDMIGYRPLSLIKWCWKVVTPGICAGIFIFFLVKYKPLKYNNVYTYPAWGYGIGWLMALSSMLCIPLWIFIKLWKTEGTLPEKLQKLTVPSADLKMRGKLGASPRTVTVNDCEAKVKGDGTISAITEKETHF
Description: Inhibition of mouse GAT4 expressed in HEK293 cell line assessed as reduction in [3H]GABA uptake incubated for 10 mins. The class given is cell-based.

The target in assay [10] is T4, GABA transporter 4 (Mus musculus) (UniProt P31650).
T4 sequence (whole entry): T3 sequence (P31650 whole entry)
Description: Inhibition of mouse GAT3 expressed in HEK293 cell line assessed as reduction in [3H]GABA uptake at 100 uM incubated for 10 mins relative to control. In kind it is cell-based.

For assay [11], the target named is Sodium- and chloride-dependent GABA transporter 1 (Mus musculus) (UniProt P31648). Put plainly: Inhibition of mouse GAT1 expressed in HEK293 cell line assessed as reduction in [3H]GABA uptake at 100 uM incubated for 10 mins relative to control. The class given is cell-based.

T1 sequence (P06276 whole entry): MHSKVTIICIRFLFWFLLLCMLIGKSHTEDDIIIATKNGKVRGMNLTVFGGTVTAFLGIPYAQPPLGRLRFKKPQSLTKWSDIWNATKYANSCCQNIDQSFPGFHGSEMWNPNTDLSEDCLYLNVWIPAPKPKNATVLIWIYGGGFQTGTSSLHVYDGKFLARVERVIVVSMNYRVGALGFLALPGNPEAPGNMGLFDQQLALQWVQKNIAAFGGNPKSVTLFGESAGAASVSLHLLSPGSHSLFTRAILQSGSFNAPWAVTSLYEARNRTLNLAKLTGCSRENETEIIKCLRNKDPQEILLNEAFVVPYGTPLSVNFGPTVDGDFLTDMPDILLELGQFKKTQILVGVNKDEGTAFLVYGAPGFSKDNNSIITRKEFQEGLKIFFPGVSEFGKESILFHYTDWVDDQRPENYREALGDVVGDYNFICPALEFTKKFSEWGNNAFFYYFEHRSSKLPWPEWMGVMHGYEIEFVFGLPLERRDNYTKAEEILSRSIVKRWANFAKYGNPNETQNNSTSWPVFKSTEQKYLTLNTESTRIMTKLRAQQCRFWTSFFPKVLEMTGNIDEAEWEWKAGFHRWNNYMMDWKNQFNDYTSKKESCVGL
Chain of Cholinesterase (Equus caballus, UniProt P81908) (P81908 whole entry): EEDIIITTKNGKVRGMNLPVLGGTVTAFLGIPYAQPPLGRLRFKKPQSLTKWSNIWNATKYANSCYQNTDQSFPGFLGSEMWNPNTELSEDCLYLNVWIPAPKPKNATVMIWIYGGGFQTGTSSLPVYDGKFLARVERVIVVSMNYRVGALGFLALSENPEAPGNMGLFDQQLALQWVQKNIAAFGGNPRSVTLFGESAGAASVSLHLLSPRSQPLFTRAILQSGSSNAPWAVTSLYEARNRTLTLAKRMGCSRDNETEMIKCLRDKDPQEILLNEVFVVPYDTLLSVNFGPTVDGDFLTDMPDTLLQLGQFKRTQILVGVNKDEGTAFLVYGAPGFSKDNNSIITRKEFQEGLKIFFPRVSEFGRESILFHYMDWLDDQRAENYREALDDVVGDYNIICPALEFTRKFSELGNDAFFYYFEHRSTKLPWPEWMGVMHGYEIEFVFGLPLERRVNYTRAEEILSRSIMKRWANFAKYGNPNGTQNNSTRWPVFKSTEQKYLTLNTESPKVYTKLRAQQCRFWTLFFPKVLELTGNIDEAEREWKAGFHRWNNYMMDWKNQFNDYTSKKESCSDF
Chain of Acetylcholinesterase (Electrophorus electricus) (O42275 24-633 limits assumed): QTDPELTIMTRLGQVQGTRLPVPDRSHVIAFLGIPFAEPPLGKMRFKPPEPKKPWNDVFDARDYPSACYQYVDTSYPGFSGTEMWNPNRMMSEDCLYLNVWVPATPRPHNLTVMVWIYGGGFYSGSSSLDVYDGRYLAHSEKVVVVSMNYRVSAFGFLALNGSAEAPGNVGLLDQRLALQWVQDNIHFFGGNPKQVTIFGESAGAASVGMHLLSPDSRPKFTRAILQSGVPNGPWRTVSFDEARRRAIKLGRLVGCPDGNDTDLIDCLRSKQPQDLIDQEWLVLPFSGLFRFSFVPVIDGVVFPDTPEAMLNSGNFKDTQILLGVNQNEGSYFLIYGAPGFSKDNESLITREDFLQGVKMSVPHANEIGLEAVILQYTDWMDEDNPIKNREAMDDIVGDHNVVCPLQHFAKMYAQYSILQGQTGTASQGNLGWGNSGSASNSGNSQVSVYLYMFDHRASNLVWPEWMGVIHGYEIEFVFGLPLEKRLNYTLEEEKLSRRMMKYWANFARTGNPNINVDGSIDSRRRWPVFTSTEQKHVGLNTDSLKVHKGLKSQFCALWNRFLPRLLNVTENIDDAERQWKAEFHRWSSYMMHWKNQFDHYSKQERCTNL

In the case of `CC(C)(C)c1cccc(CNCC(O)CNCCC(c2ccccc2)c2ccccc2)c1` (centres undefined), the inhibition in assay [1] was found to be 21.8%. For the same molecule, the IC50 at Cholinesterase [2] worked out at 5740 nM; at Cholinesterase [3], 2920 nM; on Beta-secretase 1 [4], 41600 nM.
On to `CC(C)(NC[C@@H](O)[C@H](Cc1ccccc1)NC(=O)CC(c1ccccc1)c1ccccc1)c1ccccc1`, for which the inhibition is less than 10% in [1], 13.3% against Cholinesterase [5] and 20.5% in assay [6]. Further, the IC50 against Cholinesterase [3] was determined as 3230 nM; against Beta-secretase 1 [4], 8900 nM.
In the case of `C[C@H](NC[C@@H](O)[C@H](Cc1ccccc1)NCC(c1ccccc1)c1ccccc1)c1ccccc1`, the inhibition in assay [1] was less than 10%; in assay [6], 34.7%; against Beta-secretase 1 [7], 53.9%. The IC50 against Cholinesterase [2] was determined as 920 nM; against Cholinesterase [3], 950 nM.
For the molecule `O[C@H](CNCc1ccccc1)[C@H](Cc1ccccc1)NCC(c1ccccc1)c1ccccc1`, the inhibition in assay [1] is less than 10%; on Beta-secretase 1 [7], 42%. The IC50 at Cholinesterase [2] is 320 nM; at Cholinesterase [3], 950 nM.
On to `O=C(CC(c1ccccc1)c1ccccc1)N[C@@H](Cc1ccccc1)[C@H](O)CNCc1ccccc1`, for which the results for the inhibition (in assay [1]; against Cholinesterase [5]; in [6]) were less than 10%, 62.3% and 20.5%, respectively. In addition, the IC50 at Beta-secretase 1 [4] worked out at 35400 nM.
As to `CC(C)(C)c1cccc(CNC[C@@H](O)[C@H](Cc2ccccc2)NC(=O)CC(c2ccccc2)c2ccccc2)c1`, the results for the inhibition (in assay [1]; against Cholinesterase [5]; in [6]) were less than 10%, 77.3% and 20.5%, respectively. Also, the concentration for half-maximal inhibition (IC50) against Cholinesterase [3] was determined as 450 nM; on Beta-secretase 1 [4], 6000 nM.
`COc1ccccc1CNC[C@H](O)[C@H](Cc1ccccc1)NCC(c1ccccc1)c1ccccc1`: the figures for the inhibition (in assay [1]; in assay [6]; on Beta-secretase 1 [7]) were less than 10%, 81.4% and 55.2%, respectively. The half-inhibitory concentration (IC50) came out at 580 nM against Cholinesterase [2] and 320 nM at Cholinesterase [3].
In the case of `CC(C)c1cccc(CNC[C@@H](O)[C@H](Cc2ccccc2)NCCC(c2ccccc2)c2ccccc2)c1`, the results for the inhibition (in [1]; at Cholinesterase [5]; in assay [6]) were 25.9%, 67.4% and 34.7%, respectively. The IC50 on Cholinesterase [3] worked out at 1840 nM; at Beta-secretase 1 [4], 6600 nM.
Turning to `O=C(N[C@@H](Cc1ccccc1)[C@@H](O)CNCc1cccc(C(F)(F)F)c1)C(c1ccccc1)c1ccccc1`, the inhibition in assay [1] was less than 10%. For the same molecule, the values for the IC50 at Cholinesterase [2], against Cholinesterase [3] and at Beta-secretase 1 [4] were 670 nM, 390 nM and 8600 nM, respectively.
For the molecule `CC(C)(C)c1ccc(CNC[C@H](O)[C@H](Cc2ccccc2)NC(=O)C(c2ccccc2)c2ccccc2)cc1`, the inhibition in [1] was less than 10%; in assay [6], 20.5%. Moreover, the figures for the half-inhibitory concentration (IC50) on Cholinesterase [2], at Cholinesterase [3] and against Beta-secretase 1 [4] were 200 nM, 3440 nM and 2100 nM, respectively.
Regarding `CC(C)(C)NC[C@H](O)[C@H](Cc1ccccc1)NCCC(c1ccccc1)c1ccccc1`, the inhibition in [1] was less than 10%; on Cholinesterase [5] it was 68.5%; in assay [6], 34.7%; on Beta-secretase 1 [7], 51.3%. For the same molecule, at Cholinesterase [3], the half-inhibitory concentration (IC50) was 190 nM.
For `O[C@H](CNCc1ccccc1)[C@H](Cc1ccccc1)NCCC(c1ccccc1)c1ccccc1`, in that order: less than 10%, 71.7%, 34.7%, 55.3% and 1540 nM.
For `COc1cccc(CNC[C@@H](O)[C@H](Cc2ccccc2)NCCC(c2ccccc2)c2ccccc2)c1`, in that order: less than 10%, 55.4%, 34.7%, 50.6% and 2040 nM.
As to `O=C(N[C@@H](Cc1ccccc1)[C@@H](O)CNCc1ccccc1)C(c1ccccc1)c1ccccc1`, the inhibition in [8] was 74%; in assay [1], less than 10%; against Cholinesterase [5] it was 40.5%; in assay [10], 52%; on Beta-secretase 1 [7], 66.1%. Besides, the concentration for half-maximal inhibition (IC50) in [9] turned out to be 34700 nM; on GABA transporter 4 it was 26900 nM; against Cholinesterase [3], 230 nM.
As for `CC(C)(C)CNC[C@@H](O)[C@H](Cc1ccccc1)NC(=O)CC(c1ccccc1)c1ccccc1`, the inhibition is less than 10% in assay [1] and 46.2% against Cholinesterase [5]. For the same molecule, the concentration for half-maximal inhibition (IC50) at Cholinesterase [3] is 2770 nM; on Beta-secretase 1 [4], 33600 nM.
Consider `CC(C)c1cccc(CNC[C@H](O)[C@H](Cc2ccccc2)NC(=O)C(c2ccccc2)c2ccccc2)c1`, for which the results for the inhibition (in assay [1]; on Cholinesterase [5]) were less than 10% and 74.9%, respectively. Moreover, the half-maximal inhibitory concentration (IC50) against Cholinesterase [3] amounted to 200 nM; against Beta-secretase 1 [4], 3400 nM.
With `COc1cccc(CNC[C@@H](O)[C@H](Cc2ccccc2)NC(=O)CC(c2ccccc2)c2ccccc2)c1`, the inhibition is 65% in [8]; 67% in assay [11]; less than 10% in assay [1]; 20.5% in assay [6]; 92% in assay [10]; 49% against Beta-secretase 1 [7]. Also, the values for the concentration for half-maximal inhibition (IC50) at Cholinesterase [2], at GABA transporter 4 and against Cholinesterase [3] were 440 nM, 5890 nM and 1280 nM, respectively.
Consider `C[C@H](NC[C@@H](O)[C@H](Cc1ccccc1)NCCC(c1ccccc1)c1ccccc1)c1ccccc1`, for which the inhibition was less than 10% in [1], 72.5% against Cholinesterase [5], 34.7% in assay [6] and 62% on Beta-secretase 1 [7]. At Cholinesterase [3], this molecule had a half-maximal inhibitory concentration (IC50) of 980 nM.
The corresponding values for `CC(C)(C)NC[C@H](O)[C@H](Cc1ccccc1)NC(=O)CC(c1ccccc1)c1ccccc1` are less than 10%, less than 10%, 20.5%, less than 10% and 11800 nM.
The corresponding values for `CC(C)(NC[C@@H](O)[C@H](Cc1ccccc1)NCCC(c1ccccc1)c1ccccc1)c1ccccc1` are less than 10%, 53.2%, 34.7%, 71.8% and 1600 nM.
As for `O=C(N[C@@H](Cc1ccccc1)[C@H](O)CNCc1ccccc1)C(c1ccccc1)c1ccccc1`, the inhibition in assay [1] is less than 10%; at Cholinesterase [5] it was 34.1%; against Beta-secretase 1 [7], 56.2%. The molecule further registered an IC50 on Cholinesterase [3] of 1510 nM.
Take `COc1ccccc1CNC[C@H](O)[C@H](Cc1ccccc1)NC(=O)C(c1ccccc1)c1ccccc1`: the inhibition in assay [8] was 80%; in assay [1], less than 10%; in [6], 20.5%; in assay [10] it was 69%; at Beta-secretase 1 [7], 66.2%. Moreover, the half-maximal inhibitory concentration (IC50) in assay [9] amounted to 87100 nM; against Cholinesterase [2] it was 540 nM; on GABA transporter 4 it was 20000 nM; against Cholinesterase [3], 110 nM.
With `CC(C)(C)NC[C@H](O)[C@H](Cc1ccccc1)NC(=O)C(c1ccccc1)c1ccccc1`, the inhibition in assay [1] is less than 10%; against Cholinesterase [5] it was 35.5%; in [6] it was 20.5%; against Beta-secretase 1 [7], less than 10%. The molecule further yielded a half-maximal inhibitory concentration (IC50) against Cholinesterase [3] of 840 nM.
Turning to `COc1ccccc1CNC[C@H](O)[C@H](Cc1ccccc1)NC(=O)CC(c1ccccc1)c1ccccc1`, the inhibition in assay [1] was less than 10%; in assay [6], 20.5%. Moreover, the IC50 at Cholinesterase [2] turned out to be 350 nM; against Cholinesterase [3], 330 nM; at Beta-secretase 1 [4], 23400 nM.
Regarding `COc1ccccc1CNC[C@H](O)[C@H](Cc1ccccc1)NCCC(c1ccccc1)c1ccccc1`, the inhibition in [1] is less than 10%; in assay [6] it was 34.7%; against Beta-secretase 1 [7] it was 65.5%. Also, the half-inhibitory concentration (IC50) was 800 nM on Cholinesterase [2] and 1010 nM against Cholinesterase [3].

By inhibition is commonly meant the change of the read-out against control, counted positive when it falls. The term IC50 denotes the concentration that gives 50% inhibition.

Source of the values: ChEMBL document CHEMBL4819069, “Discovery of multifunctional anti-Alzheimer's agents with a unique mechanism of action including inhibition of the enzyme butyrylcholinesterase and γ-aminobutyric acid transporters” (Eur J Med Chem, 2021).
